Values quoted from earlier work, collected in patent US20110190266A1, “5,6,6a,7,8,9-HEXAHYDRO-2H-PYRIDOPHTHALAZINONE INHIBITORS OF POLY(ADP-RIBOSE)POLYMERASE (PARP)” (priority 2010, published 2011).
Like-named read-outs stand apart in the source and are kept apart here.

Key:
[1] = molecular target: PARP-1 (Homo sapiens, UniProt P09874)
[2] = tested on: BRCA2-deficient cell line V-C8; settings: BRCA2-deficient V-C8 compared with the BRCA2 wild type control
[3] = tested on: BRCA2-deficient tumors
[4] = tested on: CAPAN-1 cells; settings: CAPAN-1 cells in DMEM supplemented with FCS (20% v/v), glutamine and antibiotics

PARP-1, sequence (P09874 whole entry, species assumed): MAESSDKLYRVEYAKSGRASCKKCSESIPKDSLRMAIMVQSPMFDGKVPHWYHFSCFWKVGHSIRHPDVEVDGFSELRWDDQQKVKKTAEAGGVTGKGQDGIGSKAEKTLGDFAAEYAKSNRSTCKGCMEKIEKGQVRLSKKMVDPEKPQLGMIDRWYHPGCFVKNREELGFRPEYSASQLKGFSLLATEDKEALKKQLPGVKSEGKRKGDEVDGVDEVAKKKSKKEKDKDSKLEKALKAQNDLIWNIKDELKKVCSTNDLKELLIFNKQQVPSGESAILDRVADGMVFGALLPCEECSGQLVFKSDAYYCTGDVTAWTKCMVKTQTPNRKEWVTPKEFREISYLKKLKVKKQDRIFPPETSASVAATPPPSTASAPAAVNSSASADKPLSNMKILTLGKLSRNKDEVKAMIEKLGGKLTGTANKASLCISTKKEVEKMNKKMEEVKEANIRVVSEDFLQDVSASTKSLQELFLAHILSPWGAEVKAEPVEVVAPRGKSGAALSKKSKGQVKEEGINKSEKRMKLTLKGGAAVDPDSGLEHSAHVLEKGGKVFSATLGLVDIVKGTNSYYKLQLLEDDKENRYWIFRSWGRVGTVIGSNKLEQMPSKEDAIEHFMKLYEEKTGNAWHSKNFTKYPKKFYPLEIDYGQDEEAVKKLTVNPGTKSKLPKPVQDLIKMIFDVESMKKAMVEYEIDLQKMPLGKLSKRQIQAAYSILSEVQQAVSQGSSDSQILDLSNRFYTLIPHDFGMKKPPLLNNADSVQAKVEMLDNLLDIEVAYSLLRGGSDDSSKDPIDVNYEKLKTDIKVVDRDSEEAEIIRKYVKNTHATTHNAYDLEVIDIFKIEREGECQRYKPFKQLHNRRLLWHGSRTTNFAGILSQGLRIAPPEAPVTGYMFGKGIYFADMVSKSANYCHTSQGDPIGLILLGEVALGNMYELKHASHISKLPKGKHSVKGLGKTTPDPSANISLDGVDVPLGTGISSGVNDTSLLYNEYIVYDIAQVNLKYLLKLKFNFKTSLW

SMILES | Ki ([1]; PARP-1 inhibitor) [nM] | sensitivity in clonogenic survival assay [2] | in vivo efficacy, tumor growth [3] | sensitivity to PARP inhibition in clonogenic survival assay [4] | Ki ([1]; moderately potent PARP-1 inhibitor) [nM]
CN(C)Cc1ccc(-c2nc3cccc4c3n2CCNC4=O)cc1 [AG14361] | 5 | exhibited sensitivity | – | – | –
O=C1CCC(=O)N1c1cc(Cc2n[nH]c(=O)c3ccccc23)ccc1F [KU0058684] | – | – | in vivo efficacy in blocking the growth of BRCA2-deficient tumors | showing sensitivity | –
Cc1nc2c(O)cccc2c(=O)[nH]1 [NU1025] | – | exhibited sensitivity | – | – | 50
